According to the METLIN SMRT retention time set (Domingo-Almenara et al. 2019):

Experiment: gradient 5% acetonitrile 3 min, to 50% in 2 min, to 85% in 15 min, held 3 min, 100 µL/min
Details: column: Zorbax Extend-C18 2.1 x 50 mm; eluents: water / acetonitrile, 0.1% formic acid
Outline: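 Using water and acetonitrile that each contained 0.1% formic acid, mixtures of ~100 pure standards were separated at 100 μL/min on a Zorbax Extend-C18 column (2.1 × 50 mm, 1.8 μm). The HPLC fed a quadrupole time-of-flight mass spectrometer working in positive and negative ionization mode, with dead and dwell volumes of 40 μL and 900 μL. Data were acquired over 3 months. Retention time was read from computationally picked adduct peaks after manual inspection of each.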

Row | RP-LC retention time [s] | Compound
1 | 642 | COc1cccc(CNC(=O)C2CCN(c3nnc4cccc(C)n34)CC2)c1
2 | 715 | COC(=O)c1c(C)[nH]c(C(=O)N2CCC(CC(=O)N3CCCCCC3)CC2)c1C
3 | 711 | COc1ccc(CNc2ccc(S(=O)(=O)C(C)(C)C)nn2)cc1OC
4 | 686 | CCN(CC)S(=O)(=O)c1ccc2c(c1)N(CC(=O)NCc1cccc(C)c1)C(=O)C1CCCCN21 (stereo not drawn)
5 | 666 | Cc1ccc(Cn2c(C)c(CNCc3ccco3)c(C(=O)O)c2C)cc1
6 | 889 | Cc1ccccc1-c1csc2c(=O)n(Cc3ccc(N4CCCC4=O)cc3)cnc12
7 | 1050 | O=C(C1CC1)N1CCc2c([nH]c3ccccc23)C1c1ccc(F)cc1 (stereo not drawn)
8 | 769 | Cc1ccc(Cc2nc(CCNC(=O)C3CCN(S(=O)(=O)c4ccc(C)cc4)CC3)n[nH]2)cc1
9 | 1330 | CC(C)Cc1csc(-c2csc(S(=O)(=O)NCc3ccccc3Cl)c2)n1
10 | 684 | O=C(c1ccc(C(F)(F)F)cc1)N1CCN(c2nc(CN3CCCCC3)cs2)CC1
11 | 955 | O=C(CCc1nnc2c3cc(-c4ccc(Cl)cc4)nn3ccn12)N1CCN(c2ccccn2)CC1
12 | 710 | Cn1cc(C(F)(F)F)nc1-c1ccc(OCC(O)CNCCOc2ccc(O)c(C(N)=O)c2)cc1 (stereo not drawn)
13 | 1220 | Fc1cccc(-c2noc(-c3nc(-c4ccc5c(c4)OCO5)no3)n2)c1
14 | 1000 | COc1ccc(-c2noc(Cn3c(=O)n(C(C)C)c(=O)c4ccccc43)n2)cc1OC
15 | 590 | COc1ccc(-c2nnc(N3CCC(C(=O)NCCN4CCCC4)CC3)o2)cc1
16 | 653 | Fc1ccc(-c2noc(CCc3nnc4ccc(N5CCN(C6CCCCC6)CC5)nn34)n2)cc1
17 | 579 | COc1ccc(CC(=O)N2CCn3c(C)nnc3C2)cc1OC
18 | 777 | CCn1cc(CN2CCC(C(=O)NC3CCCCCC3)CC2)c2cc(Cl)ccc21
19 | 863 | O=C(CSc1cn(CCNC(=O)c2ccccc2)c2ccccc12)Nc1ccccc1F
20 | 965 | Cc1cc2c(cc1S(=O)(=O)N1CCCC1C(=O)Nc1ccc(F)c(Cl)c1)OCC(=O)N2 (stereo not drawn)
21 | 772 | COc1ccc(NC(=O)Cn2c(=O)c3cc(C4CC4)nn3c3ncccc32)c(OC)c1
22 | 756 | COc1ccc(-c2cn3c(CC(=O)Nc4cccc(C#N)c4)csc3n2)cc1
23 | 912 | CCc1ccc(NC(=O)C2CCN(S(C)(=O)=O)c3ccccc3O2)cc1 (stereo not drawn)
24 | 797 | CCOc1nc2ccccc2nc1N1CCCC(C(=O)Nc2ccc(F)c(Cl)c2)C1 (stereo not drawn)
25 | 661 | COc1ccc(F)cc1S(=O)(=O)N1C[C@@H]2C[C@H](NC(=O)c3ccccc3)[C@H]1C2
26 | 688 | O=C(NCc1cccs1)C1CN(C(=O)c2ccc(F)c(F)c2)C1

Row | RP-LC retention time [s] | Compound
27 | 874 | CCOCN(C(=O)Cn1c(COC)nc2ccccc21)c1c(C)cccc1CC
28 | 1090 | Cc1cccc(CN2C(=O)N(c3ccc(F)cc3)c3ncccc3S2(=O)=O)c1
29 | 623 | COc1ccc(N2CCN(C(=O)c3cc4c(s3)CN(C3CCCC3)C4)CC2)cc1
30 | 799 | Cc1ccc(NC(=O)N2CCC(c3nc(C(=O)N(C)C)c(C)o3)CC2)cc1Cl
31 | 722 | Cc1cccc(C)c1NC(=O)N1CCCC1c1nncn1C1CCCC1 (stereo not drawn)
32 | 781 | Cc1cccc(C)c1NC(=O)Cn1c(=O)n(Cc2ccc(F)cc2)c(=O)c2nccnc21
33 | 624 | COCCN(C)C(=O)c1cn(C2CN(C(=O)NCC(C)C)C2)nn1
34 | 608 | Cc1ccc(-c2ncccc2CNC(=O)c2ccco2)cc1
35 | 1060 | CCn1cc(C(=O)NCCCOC(C)C)c(S(=O)(=O)N2CCN(c3cccc(Cl)c3)CC2)n1
36 | 939 | CCOc1ccc(CCNC(=O)CN2C(=O)CSc3cccn3-c3ccccc32)cc1OCC
37 | 801 | CCc1cc(C2CCCN2C(=O)Nc2ccc(C(=O)OC)cc2)on1 (stereo not drawn)
38 | 938 | O=c1c2scc(-c3ccc(Br)cc3)c2ncn1Cc1ccccn1
39 | 836 | Cc1ccc(CN2C(=O)CN(S(C)(=O)=O)CC2(C)C(=O)NCc2ccc(F)cc2)cc1 (stereo not drawn)
40 | 1110 | c1ccc2c(CCNc3ccc(Nc4ccncc4)cc3)c[nH]c2c1
41 | 760 | Cc1ccsc1CCNC(=O)C1CCN(S(=O)(=O)c2ccc3c(c2)CCCC(=O)N3)CC1
42 | 747 | Cc1ccc(Cn2c(CN3CCC(C(=O)NC(C)C)CC3)cc3ccccc32)cc1
43 | 674 | Cn1c(=O)c(N2CCN(S(=O)(=O)c3ccc(Cl)cc3)CC2)nc2ccncc21
44 | 1030 | CCc1sc(NC(=O)c2cc3c([nH]c2=O)CCCC3=O)nc1-c1ccc(C)c(C)c1
45 | 609 | CO[C@H]1CN(C2CCN(S(=O)(=O)c3ccc(C#N)cc3)CC2)[C@H]1c1cccnc1
46 | 886 | CCCc1cc(N2CCN(c3ccccn3)CC2)n2ncc(-c3ccccc3)c2n1
47 | 639 | O=C(c1ccc2c(c1)N(Cc1ccc(F)cc1)C(=O)CO2)N1CCN(c2ccccn2)CC1
48 | 844 | O=C(C1CCCO1)N1CCC(CCOc2ccccc2)CC1 (stereo not drawn)
49 | 595 | COc1cc2c(cc1OC)C(C(=O)NCCN1CCOCC1)C1c3ccccc3CCN1C2=O (stereo not drawn)
50 | 889 | N#Cc1ccc(-n2cnc(C(=O)Nc3cccc(C(F)(F)F)c3)c2)cc1
51 | 653 | Cc1c(F)cccc1NC(=O)N1C[C@@H](F)C[C@H]1C(=O)N1CCOCC1
52 | 923 | Cc1noc(-c2cc(=O)n(CC(=O)Nc3cccc(Cl)c3C)c3ccccc23)n1

Second part, the compound before the results:

Row | Compound | RP-LC retention time [s]
53 | CCCCNc1nc(-c2ccc(OC)cc2)nc2ccccc12 | 807
54 | COc1cc(C)c(C(C)C)cc1S(=O)(=O)Nc1cccc(C)n1 | 781
55 | CCc1cc(=O)n(CC(=O)N2CCN(c3ccccc3F)CC2)c(N2CCOCC2)n1 | 761
56 | Cc1nc(CC(=O)NCc2ccc(F)cc2F)sc1C(=O)NC1CC1 | 693
57 | CC(C)CC(=O)N1CCC(CC(=O)N2CCOCC2)C1 (stereo not drawn) | 622
58 | CCc1nnc([C@@H]2CC(F)(F)CN2C(=O)c2ccc3nc[nH]c3c2)o1 | 540
59 | CC(C)Cc1cc(-c2nn3c(-c4cccc(F)c4)nnc3s2)n[nH]1 | 993
60 | CCN(CC)c1ccc(NC(=O)C2CCCN(S(=O)(=O)c3cn(CC)cn3)C2)c(C)c1 (stereo not drawn) | 578
61 | O=C(C1=CN(c2ccc3c(c2)OCCO3)c2ccccc2S1(=O)=O)N1CCCCC1 | 830
62 | O=C1CSc2ccc(S(=O)(=O)N3CCN(c4ccccn4)CC3)cc2N1 | 604
63 | O=C(c1ccco1)N1CC(Oc2ccc(-c3nc(-c4ccccc4)no3)cc2)C1 | 856
64 | O=C(Nc1cnc2c(c1)CCC2)C1CCCC1 | 522
65 | Cc1nnc(-c2cc(NC(=O)c3cc(F)ccc3Cl)c(C)s2)o1 | 955
66 | CN(C)CCNc1oc(-c2ccc(COc3ccccc3)o2)nc1C#N | 684
67 | O=C(Cn1c(=O)cc(-c2nc(C3CC3)no2)c2ccccc21)NCc1cccc(Cl)c1 | 979
68 | CCOC(=O)CNC(=O)N1CCCC1c1ccccc1C (stereo not drawn) | 768
69 | CCCCN(C(=O)C1CC1)C1CCS(=O)(=O)C1 (stereo not drawn) | 665
70 | CCOc1ccc(S(=O)(=O)N2CCC(C(=O)Nc3ccc4c(c3)OCCO4)CC2)cc1 | 903

Row | Compound | RP-LC retention time [s]
71 | O=C1NCCCCCN(C(=O)CN2CCCCCC2)[C@H]2CCC[C@@H]12 | 567
72 | CCc1noc(NC(C)=O)c1-c1ccc(C)c(S(=O)(=O)Nc2cc(OC)c(OC)c(OC)c2)c1 | 761
73 | N#Cc1ccc(C(=O)NC2CCN(C(=O)C3CC3)C2)cc1 (stereo not drawn) | 629
74 | COc1ccc(S(=O)(=O)N2CC3CN(C(=O)Cc4cccc(F)c4)CC(C2)O3)cc1 | 825
75 | COc1ccccc1CNC(=O)CCC1CCN(c2cc(NC3CC3)ncn2)CC1 | 669
76 | O=C(Nc1cccc(C(F)(F)F)c1)C1CCN(C(=O)C2Sc3ccccc3NC2=O)CC1 (stereo not drawn) | 862
77 | CC1CCN(C(=O)CN(C)S(=O)(=O)c2ccc3c(c2)CCCC(=O)N3)CC1 | 713
78 | O=C(CSc1ncccn1)NCc1cc(-c2ccc(F)cc2)on1 | 700
79 | COc1cc(C(=O)NC2C=CS(=O)(=O)C2)cc(OC)c1OC (stereo not drawn) | 615
80 | Cc1cccc(NC(=O)C2C(=O)N(C)C3(C)CC2c2ccccc2O3)c1 (stereo not drawn) | 995
81 | O=C(NCc1ccco1)C1CCN(c2cncnc2N2CCCCC2)CC1 | 646
82 | COc1ccc2c(c1)OC1(C)CC2C(S(=O)(=O)c2ccc(C)c(C)c2)C(=O)N1 (stereo not drawn) | 934
83 | O=C(CCc1c[nH]c2ccccc12)NC1CCN(c2ccc(=O)[nH]n2)C1 (stereo not drawn) | 595
84 | COc1ccc(C(C)NC(=O)Cc2cn(C)c3ncccc23)cc1 (stereo not drawn) | 678
85 | COc1ccc(-n2c(=O)c3sccc3n(Cc3nc(-c4cccc(C)c4)no3)c2=O)cc1 | 1020
86 | O=P(O)(O)c1cc(-c2ccccc2)oc1-c1ccccc1 | 852
87 | CCOCCCNC(=O)N1CCc2cc(-c3ccc(C(=O)N4CCOCC4)cc3)ccc21 | 608
88 | Cc1ccc(NC(=O)Cn2nc3cc(C)nc(N4CCCC4)n3c2=O)c(C)c1 | 791
